Legend:
Assay type in all cases: cell-based
[1] = system: Wnt activity (Sp5-Luc reporter, SW480 colon carcinoma cells); assay: Screening assay for Wnt activity (Sp5-Luc reporter gene assay in SW480 cells); details: Homo sapiens; for EC50: Sp5-Luc reporter, SW480 cells, incubated overnight; for inhibition at 10 µM: SW480, read-out: percent inhibition at 10 μM
In short: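 SW480 colon carcinoma cells stably carrying Sp5 promoter (eight TCF/LEF sites)-driven firefly luciferase, plated at 4,000 cells/well in 1% FBS medium and incubated overnight at 37° C. Luminescence normalised to DMSO-only cells; EC50 from four-parameter variable-slope nonlinear regression.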

[2] = system: SW480 colon cancer cells; assay: Cell viability assay (CellTiter-Blue); details: Homo sapiens; for EC50: 96 h, SW480 cell viability, four days, CellTiter-Blue; for inhibition at 10 µM: SW480, 96 h, read-out: percent inhibition at 10 μM
In short: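 Fluorescence from resazurin reduced to resorufin by metabolically active cells was the read-out, taken after ~3 h with CellTiter-Blue.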

[3] = system: primary human fibroblasts derived from IPF patients (LL29 cells) treated with TGF-β1; assay: Inhibition of the fibrotic process (αSMA staining) in TGF-β1-treated fibroblasts; details: Fibroblast, 96 h; for EC50: % αSMA-positive LL29 cells, TGF-β1 20 ng/mL, 4 days
In short: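 LL29 fibroblasts from IPF patients, 1,500 cells/well in F12 with 1% FBS, stimulated with TGF-β1; TGF-β1 plus DMSO wells as controls. Incubation 4 days, then SYTOX green 1 μM final for 30 min at room temperature. Fibrotic response read as αSMA staining.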

[4] = system: primary human mesenchymal stem cells (hMSCs); assay: Induction of chondrogenesis in hMSCs (Rhodamine B / Nile Red nodule imaging); details: for EC50: concentration required to induce 50% levels of chondrogenesis vs TGF-β3 positive control, read-out: Conc (nM) of 50% TGF-β3 activity; for Emax: maximum activity relative to TGF-β3 (10 ng/mL) positive control, read-out: Max. Activity as % TGF-β3 activity
Source text: Representative compounds were screened using primary human mesenchymal stem cells (hMSCs) to determine their ability to induce chondrogenesis (process by which cartilage is developed).
Primary human mesenchymal stem cells (hMSCs) were purchased from Lonza (Walkersville, Md.) and expanded in Mesenchymal Stem Cell Growth Media (Lonza). Cells between passage 3 and 6 were used for the experiments.
Area of nodules in each well was normalized to the average of 3 DMSO treated wells on the same plate using Excel (Microsoft Inc.). The normalized averages (fold change over DMSO) of 2 or 3 replicate wells for each compound concentration were calculated. Due to solubility limitations of some of the compounds, curve fitting was incomplete leading to inaccurate EC50 determinations.
Using TGF-β3 as a positive control, the concentration of representative compounds required to induce 50% levels of chondrogenesis is reported. In addition, the maximum activity of each compound and the respective dose that each compound reached maximum chondrogenesis activity is reported.

[5] = system: IL-6 (THP-1 cells); assay: IL-6 inhibition in LPS-stimulated THP-1 cells (HTRF); details: Homo sapiens; for EC50: IL6 by HTRF, THP-1 cells, 500 ng/mL LPS, 22 hours; for inhibition at 10 µM: THP-1, read-out: percent inhibition at 10 M
In short: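 THP-1 cells, pre-cultured 24 h in 1% FBS medium, treated with compound 2 h at 37 °C, then stimulated with 500 ng/mL LPS for 22 h. Secreted IL-6 measured by HTRF as the 665/620 nm ratio. Values normalized to DMSO; EC50 from four-parameter fit, duplicates.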

| SMILES | EC50 [1] [nM] | EC50 [2] [nM] | EC50 [3] [nM] | EC50 [4] [nM] | Emax [4] [%] | EC50 [5] [nM] | inhibition at 10 µM [2] [%] | inhibition at 10 µM ([3]; read-out: percent inhibition at 10 μM) [%] | inhibition at 10 µM [1] [%] | inhibition at 10 µM [5] [%] |
| --- | --- | --- | --- | --- | --- | --- | --- | --- | --- | --- |
| CC(C)C(=O)Nc1cncc(-c2ccc3[nH]nc(-c4cc5c(-c6ccccc6F)nccc5[nH]4)c3c2)c1 [Compound 65, N-(5-(3-(4-(2-Fluorophenyl)-1H-pyrrolo[3,2-c]pyridin-2-yl)-1H-indazol-5-yl)pyridin-3-yl)isobutyramide] | 170 | 221 | 98 | 2700 | 108 | 73 | – | – | – | – |
| Fc1ccccc1-c1nccc2[nH]c(-c3n[nH]c4ccc(-c5cncc(CN6CCCCC6)c5)cc34)cc12 [Compound 71, 3-(4-(2-Fluorophenyl)-1H-pyrrolo[3,2-c]pyridin-2-yl)-5-(5-(piperidin-1-ylmethyl)pyridin-3-yl)-1H-indazole] | 2800 | 1000 | 1940 | – | 16 | 1090 | – | – | – | – |
| CCCCC(=O)Nc1cncc(-c2ccc3[nH]nc(-c4cc5c(-c6ccccc6F)nccc5[nH]4)c3c2)c1 [Compound 75, N-(5-(3-(4-(2-Fluorophenyl)-1H-pyrrolo[3,2-c]pyridin-2-yl)-1H-indazol-5-yl)pyridin-3-yl)pentanamide] | 345 | 221 | 254 | 2700 | 76 | 39 | – | – | – | – |
| O=C(Nc1cncc(-c2ccc3[nH]nc(-c4cc5c(-c6ccccc6F)nccc5[nH]4)c3c2)c1)C1CCCC1 [Compound 78, N-(5-(3-(4-(2-Fluorophenyl)-1H-pyrrolo[3,2-c]pyridin-2-yl)-1H-indazol-5-yl)pyridin-3-yl)cyclopentanecarboxamide] | 418 | 549 | 841 | 10 | 71 | 78 | – | – | – | – |
| Fc1ccccc1-c1nccc2[nH]c(-c3n[nH]c4ccc(-c5cncc(CN6CCC(F)(F)C6)c5)cc34)cc12 [Compound 82, 5-(5-((3,3-Difluoropyrrolidin-1-yl)methyl)pyridin-3-yl)-3-(4-(2-fluorophenyl)-1H-pyrrolo[3,2-c]pyridin-2-yl)-1H-indazole] | 233 | 821 | 221 | 2700 | 172 | 181 | – | – | – | – |
| Nc1cncc(-c2ccc3[nH]nc(-c4cc5c(-c6cccnc6)nccc5[nH]4)c3c2)c1 [Compound 87, 5-(3-(4-(Pyridin-3-yl)-1H-pyrrolo[3,2-c]pyridin-2-yl)-1H-indazol-5-yl)pyridin-3-amine] | 146 | 562 | 113 | 100 | 178 | 86 | – | – | – | – |
| O=C(Nc1cncc(-c2ccc3[nH]nc(-c4cc5c(-c6cccnc6)nccc5[nH]4)c3c2)c1)c1ccccc1 [Compound 95, N-(5-(3-(4-(Pyridin-3-yl)-1H-pyrrolo[3,2-c]pyridin-2-yl)-1H-indazol-5-yl)pyridin-3-yl)benzamide] | 421 | > 10000 | > 10000 | – | 19 | 10 | 15.5 | 0 | – | – |
| O=C(Nc1cncc(-c2ccc3[nH]nc(-c4cc5c(-c6cccnc6)nccc5[nH]4)c3c2)c1)C1CCC1 [Compound 105, N-(5-(3-(4-(Pyridin-3-yl)-1H-pyrrolo[3,2-c]pyridin-2-yl)-1H-indazol-5-yl)pyridin-3-yl)cyclobutanecarboxamide] | 111 | 555 | 2420 | 10 | 172 | 40 | – | – | – | – |
| CC(C)CC(=O)Nc1cncc(-c2ccc3[nH]nc(-c4cc5c(-c6ccncc6)nccc5[nH]4)c3c2)c1 [Compound 114, 3-Methyl-N-(5-(3-(4-(pyridin-4-yl)-1H-pyrrolo[3,2-c]pyridin-2-yl)-1H-indazol-5-yl)pyridin-3-yl)butanamide] | > 10000 | > 10000 | 2220 | 30 | 95 | 1020 | 4.1 | – | 39.7 | – |
| Nc1cncc(-c2ccc3[nH]nc(-c4cc5c(-c6ccncc6)nccc5[nH]4)c3c2)c1 [Compound 115, 5-(3-(4-(Pyridin-4-yl)-1H-pyrrolo[3,2-c]pyridin-2-yl)-1H-indazol-5-yl)pyridin-3-amine] | 658 | 3790 | 1390 | 100 | 77 | > 10000 | – | – | – | 29 |
| O=C(Nc1cncc(-c2ccc3[nH]nc(-c4cc5c(-c6ccncc6)nccc5[nH]4)c3c2)c1)C1CCCC1 [Compound 134, N-(5-(3-(4-(Pyridin-4-yl)-1H-pyrrolo[3,2-c]pyridin-2-yl)-1H-indazol-5-yl)pyridin-3-yl)cyclopentanecarboxamide] | > 10000 | > 10000 | 2440 | 30 | 114 | 9740 | 4.2 | – | 20.6 | – |
| CCC(=O)Nc1cncc(-c2ccc3[nH]nc(-c4cc5c(N6CCCCC6)nccc5[nH]4)c3c2)c1 [Compound 169, N-(5-(3-(4-(Piperidin-1-yl)-1H-pyrrolo[3,2-c]pyridin-2-yl)-1H-indazol-5-yl)pyridin-3-yl)propionamide] | 445 | 296 | 149 | 10 | 244 | 48 | – | – | – | – |
| c1cncc(-c2ccc3[nH]nc(-c4cc5c(N6CCCCC6)nccc5[nH]4)c3c2)c1 [Compound 172, 3-(4-(Piperidin-1-yl)-1H-pyrrolo[3,2-c]pyridin-2-yl)-5-(pyridin-3-yl)-1H-indazole] | 480 | 844 | 1050 | 10 | 172 | 189 | – | – | – | – |
| CCNCc1cncc(-c2ccc3[nH]nc(-c4cc5c(N6CCCCC6)nccc5[nH]4)c3c2)c1 [Compound 174, N-((5-(3-(4-(Piperidin-1-yl)-1H-pyrrolo[3,2-c]pyridin-2-yl)-1H-indazol-5-yl)pyridin-3-yl)methyl)ethanamine] | 2960 | 963 | 1460 | 900 | 301 | 456 | – | – | – | – |
| CC(C)(C)C(=O)Nc1cncc(-c2ccc3[nH]nc(-c4cc5c(N6CCCCC6)nccc5[nH]4)c3c2)c1 [Compound 176, N-(5-(3-(4-(Piperidin-1-yl)-1H-pyrrolo[3,2-c]pyridin-2-yl)-1H-indazol-5-yl)pyridin-3-yl)pivalamide] | 1320 | 1350 | 650 | – | 35 | 350 | – | – | – | – |
| O=C(Cc1ccccc1)Nc1cncc(-c2ccc3[nH]nc(-c4cc5c(N6CCCCC6)nccc5[nH]4)c3c2)c1 [Compound 178, 2-Phenyl-N-(5-(3-(4-(piperidin-1-yl)-1H-pyrrolo[3,2-c]pyridin-2-yl)-1H-indazol-5-yl)pyridin-3-yl)acetamide] | 2350 | 2870 | 505 | 900 | 73 | 1520 | – | – | – | – |
| CN(C)Cc1cncc(-c2ccc3[nH]nc(-c4cc5c(N6CCCCC6)nccc5[nH]4)c3c2)c1 [Compound 181, N,N-Dimethyl-1-(5-(3-(4-(piperidin-1-yl)-1H-pyrrolo[3,2-c]pyridin-2-yl)-1H-indazol-5-yl)pyridin-3-yl)methanamine] | 4710 | 1940 | 3320 | 10 | 220 | > 10000 | – | – | – | 22.5 |
| c1cc2[nH]c(-c3n[nH]c4ccc(-c5cncc(CN6CCCCC6)c5)cc34)cc2c(N2CCCCC2)n1 [Compound 183, 3-(4-(Piperidin-1-yl)-1H-pyrrolo[3,2-c]pyridin-2-yl)-5-(5-(piperidin-1-ylmethyl)pyridin-3-yl)-1H-indazole] | 4210 | 3810 | 3280 | – | 48 | 9310 | – | – | – | – |
